# How the values were obtained:
# colon lymphocytes = experiment: ELISA of IL-22 in supernatants of isolated colon lymphocytes; assay type: cell-based, mice
# Description: Enzyme-Linked Immunosorbent Assay (ELISA). The cytokine IL-22, IL-1β, and TNFα levels in cell culture supernatants or mouse colon mucus were quantified using ELISA kits (eBioscience) according to the manufacturer's instructions. Briefly, a microtiter plate was coated with anti-mouse IL-22, IL-1β and TNFα antibody at 1:200 overnight at 4° C. Excess binding sites were blocked with 200 μl of 1×[…] Diluent (eBioscience, San Diego, California, United States of America) for 1 hour at 22° C. After washing three times with PBS containing 0.05% Tween 20, the plate was incubated with detection antibody in blocking buffer for 1 hour at 22° C. After three washes, avidin conjugated with horseradish peroxidase and substrate were each added sequentially for 1 hour and 30 min at 22° C. […] Isolation of Lymphoid Cells in the Colon. Intestinal lymphoid cells were isolated from the intestine by incubation in PBS supplemented with 1 mM EDTA, 15 mM HEPES and 10% FCS for 30 minutes at 37° C. Supernatants were discarded, and tissues were then incubated in RPMI supplemented with 15 mM HEPES and 300 units/mL collagenase type VIII (Sigma) for 30 minutes with gentle shaking. Lysates were gently pressed through nylon cell strainers (70 μm in diameter; […] Lymphocytes were recovered from the interface and washed twice.
# LGG = experiment: HPLC analysis of tryptophan metabolites in LGG MRS broth; assay type: cell-based, Lactobacillus rhamnosus
# Description: HPLC Analysis of Tryptophan Metabolites. The fecal samples and LGG MRS broth were diluted with an equal volume of methanol. After centrifugation at 10,000×g for 30 minutes, 50 μl of supernatant was injected for high-performance liquid chromatography (HPLC) analysis. The HPLC analysis was performed on an Agilent 1260 Infinity system equipped with an Agilent ZORBAX SB-C18 column (4.6×150 mm, 3.5 μm), with following parameters: mobile phase A: 5 mM NH4Ac in water modified with 0.1% formic acid (v/v); mobile phase B: 5 mM NH4Ac in 90% acetonitrile modified with 0.1% formic acid (v/v); gradient: 5% B in first 5 min, 5-20% B for 10 min, hold 20% B for 5 min, 20%-50% B for 5 min, hold 50% B for 5 min, 50%-100% B for 5 min, hold 100% B for 10 min, 100-5% B for 5 min; flow rate: 1.0 ml/min; temperature: 30° C. UV detection at 300 nm was used to monitor indole-3-carboxaldehyde (I3A) and indole-3-acetaldehyde (IAAld); FLD (ex=280 nm; em=350 nm) was used for detection of tryptophan and indole-3-acetamide (I3AM). The standard for I3A (Catalog No. 129445-5g), I3AM (Catalog No. 286281-1G), IAAld (Catalog No. I1000-25MG), and tryptophan (Catalog No. T0254-25g) were purchased from Sigma.
# IL-22, IL-1β, TNFα = experiment: ELISA of IL-22, IL-1β and TNFα in colon mucus; assay type: in vivo, mice
# Description: Enzyme-Linked Immunosorbent Assay (ELISA). The cytokine IL-22, IL-1β, and TNFα levels in cell culture supernatants or mouse colon mucus were quantified using ELISA kits (eBioscience) according to the manufacturer's instructions. Briefly, a microtiter plate was coated with anti-mouse IL-22, IL-1β and TNFα antibody at 1:200 overnight at 4° C. Excess binding sites were blocked with 200 μl of 1×ELISA/ELISPoT Diluent (eBioscience, San Diego, California, United States of America) for 1 hour at 22° C. After washing three times with PBS containing 0.05% Tween 20, the plate was incubated with detection antibody in blocking buffer for 1 hour at 22° C. After three washes, avidin conjugated with horseradish peroxidase and substrate were each added sequentially for 1 hour and 30 min at 22° C. An analysis of absorbance at 405 nm using a microtiter plate reader (BioTek Synergy HT, BioTek Instruments, Inc., Winooski, Vermont, United States of America) followed.
# MC-38 cells = experiment: Migration assay, intracellular LGG; assay type: cell-based, C57BL/6 murine
# Description: Cells. C57BL/6 murine colon adenocarcinoma MC-38 cells (gender unknown; Kerafast, Inc., Boston, Massachusetts, United States of America) or human epithelial colorectal adenocarcinoma Caco-2 cells (American Type Culture Collection, ATCC®, Manassas, Virginia, United States of America) were grown in tissue culture plates with Dulbecco's modified Eagle's medium (DMEM) supplemented with 10% heat-inactivated fetal bovine serum (FBS), 100 U/mL penicillin, and 100 μg/mL streptomycin at 37° C. in a 5% CO2 atmosphere.
# Migration Assays. MC-38 or Caco-2 cells (ATCC) were seeded at 1×10^5 cells per well in a 12-well tissue culture plate with Dulbecco's modified Eagle's medium (DMEM) without antibiotics. The cells were inoculated with 1×10^7 bacteria per well for 90 minutes at 37° C. in a 5% CO2 atmosphere to allow bacterial adhesion and entry. The number of intracellular bacteria was quantified as described in Zhang & Wang, 1998.
# monooxygenase ycnE = experiment: ycnE expression in LGG (qPCR, mRNA sequencing, LC-MS/MS); assay type: cell-based, Lactobacillus rhamnosus
# Description: Quantitative Real-Time PCR for RNA Expression. The quantity of mature miRNAs was determined with quantitative real-time PCR (qPCR) using a miScript II RT kit (QIAGEN Inc., Germantown, Maryland, United States of America) and miScript SYBR Green PCR Kit (QIAGEN) with QIAGEN 3′ universal primers. For analysis of gene mRNA expression, 1 μg of total RNA was reverse transcribed using SuperScript III reverse transcriptase (Invitrogen, Waltham, Massachusetts, United States of America), and quantitation was performed using SsoAdvanced™ Universal SYBR Green Supermix (Bio-Rad Laboratories, Inc., Hercules, California, United States of America) and the listed primers (Table 1) with SsoAdvanced™ Universal SYBR Green Supermix (Bio-Rad). qPCR was performed using a Bio-Rad CFX96 qPCR System with each reaction run in triplicate. Analysis and fold-changes were determined using the comparative threshold cycle (Ct) method. Changes in miRNA or mRNA expression were calculated as fold-change. […]
# LGG mRNA Sequencing. […] Following quantitation with Qubit dsDNA HS Reagent (Catalog No., Q32854; Thermo Scientific,), 10 ng of dscDNA/sample was fragmented with an E220 Focused-ultrasonicator (Covaris, Matthews, North Carolina, United States of America). […] Libraries were then combined into equimolar pools, which were then measured for size and concentration. […] The first and second reads were each 83 bases.
compound,measurement,setting,value
"O=Cc1c[nH]c2ccccc12 [I3A, indole-3-carboxaldehyde]",induction of IL-22 in colon lymphocytes from AHR KO mice,colon lymphocytes; AHR KO mice,no evidence of an impact
same,IL-22 in supernatants of colon lymphocytes,colon lymphocytes; colon lymphocytes from naïve B6 mice incubated for 3 hours,induced expression of IL-22
"NC(=O)Cc1c[nH]c2ccccc12 [I3AM, indole-3-acetamide]",production of IAAld and I3A by LGG,"LGG; MRS media, different concentrations of I3AM",inhibited the production of IAAld and I3A in a dose-dependent manner
same,GELN-RNA-mediated induction of the I3A precursor IAAld in LGG cultures,LGG; addition of I3AM to LGG cultures,significantly inhibited
same,inhibitory effect on IL-22 production in AHR KO mice,"IL-22, IL-1β, TNFα; AHR KO mice treated with LGG supernatant exposed to I3AM",did not occur
"O=CCc1c[nH]c2ccccc12 [IAAld, indole-3-acetaldehyde]",inhibitory effect of I3AM on the production of I3A,LGG; additional IAAld,cancelled
same,I3AM-mediated inhibitory effect on IL-22 production,"IL-22, IL-1β, TNFα; colon mucus of WT mice gavaged with MRS medium from treated LGG",cancelled the I3AM-mediated inhibitory effort on IL-22 production
"ath-miR827: GELN-derived miRNA, SEQ ID NO: 81 (UUAGAUGACCAUCAACAAACU; expressed or natural sequence)",LGG entry into MC38 cells,MC-38 cells,could prevent the entry of LGG into gut epithelial cells
"ath-miR842: GELN-derived miRNA, SEQ ID NO: 82 (UCAUGGUCAGAUCCGUCAUCC; expressed or natural sequence)",LGG entry into MC38 cells,MC-38 cells,could prevent the entry of LGG into gut epithelial cells
"mdo-miR7267-3p: GELN-derived miRNA, SEQ ID NO: 129 (CAUCCAGCCAUCCACCCCAGGCCAUC; expressed or natural sequence)",I3A in LGG cultures,LGG,induction of I3A
same,I3AM in LGG cultures,LGG,inhibition of I3AM
same,ycnE expression in LGG,monooxygenase ycnE,indeed inhibited
